From patent publication US11382956B2, “Amylin analogues” (Zealand Pharma A/S, priority 2016, dated 2022)
Numbered stars: 1 amine (or outer) side, 2 acyl side, 3 side chain; on linkers, the order of the positions; unused ones are H or OH. Bridge positions count the residues as written; N and C are the ends. Square brackets hold non-standard residues; d marks the D form. Peptide text beside a SMILES is read from it. * marks the point of attachment. C20 diacid = O=C(O)CCCCCCCCCCCCCCCCCCC(=O)*; γGlu = O=C(O)[C@H](CCC(=O)[*:2])N[*:1]; Hyp = O=C(O)[C@@H]1C[C@@H](O)CN1; NMeI = CC[C@H](C)[C@H](NC)C(=O)O; Sar = CNCC(=O)O

What was measured:
[1] = target: T1, recombinant human calcitonin receptor (hCT-R) (Homo sapiens, UniProt P30988); assay: hCT-R cAMP assay (AlphaScreen) in 1321N1 cells; assay type: cell-based; conditions: cAMP formation, 45 min stimulation
T1 construct: host or cells: human astrocytoma cell line 1321N1
T1 sequence (P30988 25-474): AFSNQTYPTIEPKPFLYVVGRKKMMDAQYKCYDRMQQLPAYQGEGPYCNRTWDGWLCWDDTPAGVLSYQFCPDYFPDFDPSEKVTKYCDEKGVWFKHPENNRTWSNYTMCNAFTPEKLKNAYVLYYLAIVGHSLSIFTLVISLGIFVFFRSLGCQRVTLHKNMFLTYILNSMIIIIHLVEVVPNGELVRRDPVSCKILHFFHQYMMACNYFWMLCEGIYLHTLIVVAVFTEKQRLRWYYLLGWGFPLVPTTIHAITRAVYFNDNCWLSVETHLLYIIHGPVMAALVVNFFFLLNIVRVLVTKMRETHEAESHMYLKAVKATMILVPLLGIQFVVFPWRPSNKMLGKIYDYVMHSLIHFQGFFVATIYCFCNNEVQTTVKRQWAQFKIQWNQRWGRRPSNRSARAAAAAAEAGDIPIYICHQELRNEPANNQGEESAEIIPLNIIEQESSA
How it was run: (§1)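 1321N1 astrocytoma cells expressing recombinant human calcitonin receptor alone or with RAMP3 (AMY3) stimulated 45 min at room temperature with peptide in IBMX-containing buffer. cAMP quantified by AlphaScreen after 1 h bead incubation; EC50 fitted from at least 7 concentrations.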

[2] = target: T2, recombinant human amylin 3 receptor (hAMYR3) (Homo sapiens, UniProt O60896+P30988); assay: hAMYR3 cAMP assay (AlphaScreen) in 1321N1 cells; assay type: cell-based; conditions: cAMP formation, 45 min stimulation
T2 construct: host or cells: human astrocytoma cell line 1321N1
T2 sequence (P30988 25-474): T1 sequence (P30988 25-474)
T2 sequence (O60896 24-148 partner): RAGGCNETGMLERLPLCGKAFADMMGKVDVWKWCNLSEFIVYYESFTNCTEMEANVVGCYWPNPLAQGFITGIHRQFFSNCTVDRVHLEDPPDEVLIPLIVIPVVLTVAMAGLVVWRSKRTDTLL
How it was run: as §1

[3] = Assessment of chemical stability in 40 mM buffers at 40° C. (RP-HPLC); assay type: physicochemical; conditions: 1 mg/mL
Description: Samples of each test peptide were dissolved in acetate buffer pH 4 and phosphate buffer pH 6 and 7 (all buffer 40 mM). The final peptide concentration was 1 mg/mL. Samples were placed in glass vials and incubated at 40° C. The samples were analyzed by RP-HPLC on a C8 column with gradient elution using a trifluoroacetic acid/acetonitrile/water eluent system. The area-percentage (area-%) of the main peak was determined by UV spectroscopy at 220 nm at each sampling time point.
The % degradation was calculated by subtracting the […].
The results of the chemical stability assessment after 3 days of incubation time are summarized as % degradation in Table 1 (below).
The results of the chemical stability assessment after 14 days of incubation time are summarized as % degradation in Table 2 (below).

[4] = Assessment of physical stability: fibril formation by Thioflavin T fluorescence; assay type: physicochemical; set-up: key: FND = fibrillation not detected; FD = fibrillation detected; conditions: 1 mg/mL peptide
Description: Solutions containing (i) 1 mg/mL of test peptide, 40 μM ThT and 50 mM phosphate (Ph) buffer (pH 7.0), (ii) 1 mg/mL of test peptide, 40 μM ThT and 50 mM histidine (His) buffer (pH 7.0), and (iii) 1 mg/mL of test peptide, 40 μM ThT and 50 mM acetate (Ac) buffer (pH 4.0), were loaded in a 96-well black fluorescence plate (clear bottom) in triplicate. Data were collected at fixed intervals of 10 min, each preceded by 300 s of automixing (agitation), over a period of 96 hours at 40° C. Physical stability is determined by measuring the fluorescence intensity over time. A significant increase in intensity is rated as fibrillation detected (FD).

| EC50 [1] | EC50 [2] | % degradation after 14 days at 40° C. pH4 acetate ([3]; acetate buffer pH 4, 14 days) | % degradation after 14 days at 40° C. pH6 phosphate ([3]; phosphate buffer pH 6, 14 days) | % degradation after 14 days at 40° C. pH7 phosphate ([3]; phosphate buffer pH 7, 14 days) | Fibrillation (in buffer) pH4 acetate ([4]; 50 mM acetate buffer pH 4.0, 96 hours at 40° C.) | Fibrillation (in buffer) pH7 histidine ([4]; 50 mM histidine buffer pH 7.0, 96 hours at 40° C.) | Fibrillation (in buffer) pH7 phosphate ([4]; 50 mM phosphate buffer pH 7.0, 96 hours at 40° C.) | Structure (SMILES) |
| --- | --- | --- | --- | --- | --- | --- | --- | --- |
| 0.386 nM | 0.108 nM | 2.2% | <1% | 2.6% |  |  |  | CC[C@H](C)[C@@H](C(=O)N[C@@H](CC(C)C)C(=O)N[C@@H](CO)C(=O)N[C@@H](CO)C(=O)N[C@H](C(=O)N[C@@H](CCC(=O)O)C(=O)N[C@H](C(=O)NCC(=O)N[C@@H](CO)C(=O)N[C@@H](CC(N)=O)C(=O)N[C@H](C(=O)N1C[C@H](O)C[C@H]1C(N)=O)[C@@H](C)O)C(C)C)[C@@H](C)O)N(C)C(=O)[C@H](C)NC(=O)CN(C)C(=O)[C@H](Cc1ccccc1)NC(=O)[C@H](CO)NC(=O)[C@H](CO)NC(=O)[C@H](CCCNC(=N)N)NC(=O)[C@H](CCC(N)=O)NC(=O)[C@H](CC(C)C)NC(=O)[C@H](Cc1ccccc1)NC(=O)[C@H](Cc1c[nH]cn1)NC(=O)[C@H](C)NC(=O)[C@H](CC(C)C)NC(=O)[C@H](CCCNC(=N)N)NC(=O)[C@H](CCC(=O)O)NC(=O)[C@@H](NC(=O)[C@H](C)NC(=O)[C@@H]1CCCCNC(=O)C[C@H](NC(=O)[C@H](CCCNC(=N)N)NC(=O)CC[C@H](NC(=O)CCCCCCCCCCCCCCCCCCC(=O)O)C(=O)O)C(=O)NCC(=O)N[C@@H]([C@@H](C)O)C(=O)N[C@@H](C)C(=O)N[C@@H](CO)C(=O)N1)[C@@H](C)O [Compound 14, [19CD]-isoGlu-RD()GTASK()ATERLAHFLQRSSF-Gly(Me)-A-Ile(Me)-LSSTEVGSNT-Hyp-NH2] ({C20 diacid-γGlu}-RDGTASKATERLAHFLQRSSF[Sar]A[NMeI]LSSTEVGSNT[Hyp]-NH2; lactam 2-7) |
| 0.021 nM | 0.007 nM |  |  |  | FD | FD | FD | CC[C@H](C)[C@@H](C(=O)N[C@@H](CC(C)C)C(=O)N[C@@H](CO)C(=O)N[C@@H](CO)C(=O)N[C@H](C(=O)N[C@@H](CCC(=O)O)C(=O)N[C@H](C(=O)NCC(=O)N[C@@H](CO)C(=O)N[C@@H](CC(N)=O)C(=O)N[C@H](C(=O)N1C[C@H](O)C[C@H]1C(N)=O)[C@@H](C)O)C(C)C)[C@@H](C)O)N(C)C(=O)[C@H](C)NC(=O)CN(C)C(=O)[C@H](Cc1ccccc1)NC(=O)[C@H](CO)NC(=O)[C@H](CO)NC(=O)[C@H](CCCNC(=N)N)NC(=O)[C@H](CCC(N)=O)NC(=O)[C@H](CC(C)C)NC(=O)[C@H](Cc1ccccc1)NC(=O)[C@H](CC(N)=O)NC(=O)[C@H](C)NC(=O)[C@H](CC(C)C)NC(=O)[C@H](CCCNC(=N)N)NC(=O)[C@H](CCC(N)=O)NC(=O)[C@@H](NC(=O)[C@H](C)NC(=O)[C@@H]1CCCCNC(=O)C[C@H](NC(=O)[C@H](CCCCN)NC(=O)CC[C@H](NC(=O)CCCCCCCCCCCCCCCCCCC(=O)O)C(=O)O)C(=O)NCC(=O)N[C@@H]([C@@H](C)O)C(=O)N[C@@H](C)C(=O)N[C@@H]([C@@H](C)O)C(=O)N1)[C@@H](C)O [Compound 43, [19CD]-isoGlu-KD()GTATK()ATQRLANFLQRSSF-Gly(Me)-A-Ile(Me)-LSSTEVGSNT-Hyp-NH2] ({C20 diacid-γGlu}-KDGTATKATQRLANFLQRSSF[Sar]A[NMeI]LSSTEVGSNT[Hyp]-NH2; lactam 2-7) |
